Test results published in publication PMC9481608, “Synthesis of natural product hybrids by the Ugi reaction in complex media containing plant extracts” (Scientific Reports, 2022).

target: T1, α-chymotrypsin (bovine pancreatic) (Bos taurus, UniProt P00766); test: chromogenic protease inhibition assay, absorbance at […] nm; assay type: biochemical; conditions: not given
T1 construct: native enzyme from bovine pancreas, commercial, used as received

First: CC(C)=C1C[C@@H]2[C@@H](CCC(C)(C(=O)NC3CCCCC3)N(C(=O)CCl)c3ccc4ccc5cccc6ccc3c4c56)[C@]2(C)CC1=O (stereo partly shown) [compound 7, Ugi adduct 7]
Second: CCCCCC[C@@H](O)C/C=C\CCCCCCCC(=O)N(Cc1ccccc1)C(C)(CC[C@@H]1[C@H]2CC(=C(C)C)C(=O)C[C@@]12C)C(=O)NC1CCCCC1 (mixture of isomers) [compound 10, Ugi adduct 10]
The IC50 of the first is 2.5-fold lower: 3.1 ± 0.1 µM for the first, 7.7 ± 0.6 µM for the second.

Compared with `CCCCCC[C@@H](O)C/C=C\CCCCCCCC(=O)O[C@@H](C/C=C\CCCCCCCC(=O)N(Cc1ccccc1)C(CC(C)CCC=C(C)C)C(=O)NC1CCCCC1)CCCCCC` (stereo partly shown) [8b, Ugi adduct 8b], `CCCCCC[C@@H](O)C/C=C\CCCCCCCC(=O)N(Cc1ccccc1)C(CC(C)CCC=C(C)C)C(=O)NC1CCCCC1` (stereo partly shown) [8a, Ugi adduct 8a] is 1.8-fold lower in IC50: 13.4 ± 1.3 µM for the first, 7.3 ± 0.6 µM for the second.

Compound `CCCCCC[C@@H](O)C/C=C\CCCCCCCC(=O)N(Cc1ccccc1)C(C(=O)NC1CCCCC1)c1ccccc1` (stereo partly shown) [compound 9, Ugi adduct 9] has an IC50 of 7.9 ± 0.5 µM.

target: T1, α-chymotrypsin (bovine pancreatic); test: as above; assay type: biochemical; conditions: 100 μM SAAPFpNA, 6 nM enzyme, 80 mM Tris-HCl pH 7.8, 10 mM CaCl2, 25 °C, 30 min preincubation, 3% DMSO

`CC(C)=C1C[C@@H]2[C@@H](CCC(C)(C(=O)NC3CCCCC3)N(Cc3ccccc3)C(=O)CCl)[C@]2(C)CC1=O` (mixture of isomers) [compound 4, Ugi adduct 4] and `CC(=O)N(Cc1ccccc1)C(C)(CC[C@@H]1[C@H]2CC(=C(C)C)C(=O)C[C@@]12C)C(=O)NC1CCCCC1` (mixture of isomers) [compound 5, Ugi adduct 5] are within error of each other in “% Inhibition (10 μM)^a” value: 3.1 ± 0.9% for the first, 4.2 ± 1.7% for the second.

`CC(=O)N(Cc1ccccc1)C(CC(C)CCC=C(C)C)C(=O)NCS(=O)(=O)c1ccc(C)cc1` (racemic) [compound 2, Ugi adduct 2] was tested, and the “% Inhibition (10 μM)^a” value was 9.2 ± 1.6%.

target: T1, α-chymotrypsin (bovine pancreatic); test: biochemical; design: alpha-chymotrypsin inhibition, SAAPFpNA (100 uM) hydrolysis, absorbance at 410 nm, 25 °C, pH 7.8; conditions: not given
Method: Bovine pancreatic α-chymotrypsin was purchased from Sigma-Aldrich (C4129) and used as received. Enzyme solutions were kept on ice during the experiments. The molecular mass of α-chymotrypsin was taken as 25 kDa. N-Succinyl-L-alanine-L-alanine-L-proline-L-phenylalanine-p-nitroanilide (SAAPFpNA) was purchased from Sigma-Aldrich (S7388), prepared as a 10 mM stock solution in DMSO, and stored at − 30 °C. A microbial chymostatin, a mixture of chymostatin A–C, was purchased from Peptide Institute (4063) and used as a positive control. DMSO for biochemical research was purchased from Nacalai and used as received. Other reagents were purchased from Nacalai and used as received. The concentration–response curves were plotted and IC50 values were calculated by GraphPad Prism 8 software using a sigmoidal concentration–response curve analysis with variable slope. Absorbance was measured with a JASCO V-660 spectrometer at 25 °C. According to the reported procedure, the assay was performed in Tris–HCl buffer (80 mM, pH 7.8) containing α-chymotrypsin (6 nM, final concentration) and CaCl2 (10 mM, final concentration). After 30 min of incubation with the test compound at 25 °C, the enzymatic reaction was initiated by adding SAAPFpNA (100 μM, final concentration) to give a final volume of 700 μL. Reaction progress was monitored by absorbance at 410 nm at 25 °C for 5 min. The final concentration of DMSO was 3% (v/v). The prepared Ugi adducts have a diamide motif and were therefore subjected to a protease inhibition assay. Protease inhibitors have received increasing attention for their therapeutic potential against respiratory virus infections including severe acute respiratory syndrome coronavirus 2 (SARS-CoV-2)[34],[35]. The inhibitory activity of the Ugi adducts was determined in the presence of 6 nM α-chymotrypsin and 100 μM succinyl-Ala-Ala-Pro-Phe-p-nitroanilide[36]. […] Thus, the proposed engineering method, although preliminary, can be used to create novel candidates for α-chymotrypsin inhibitors. Further structural optimization, such as removal of the benzyl group on the amide nitrogen, construction of a dipeptide motif, and installation of an aromatic amino acid residue at the C-terminal of dipeptides[37] will improve the inhibitory activities of the Ugi adducts and will be reported in due course. The molecular weights of the synthesized plant product-like molecules were in the range of 492.70–1011.57 g mol^−1, which corresponds to the category of beyond the rule of five (bRo5)[38], or middle-molecules. Therefore, the present chemical hybridization method could be used to construct a small library of middle-molecules mimicking natural products, which is useful for the discovery of peptidic modulators of protein–protein interactions. Ongoing biological evaluations of the present molecules will unveil their specific pharmaceutical potential.

Going from `O=C(NC1CCCCC1)C(c1ccccc1)N(C(=O)CCl)c1ccc2ccc3cccc4ccc1c2c34` (stereo not shown) [1g, 2-Chloro-N-(2-(cyclohexylamino)-2-oxo-1-phenylethyl)-N-(pyren-1-yl)acetamide] to `CC(C)=CCCC(C)CC(C(=O)NC1CCCCC1)N(Cc1ccccc1)C(=O)CC[C@@H](C)[C@H]1CC[C@H]2[C@@H]3[C@@H](O)C[C@@H]4C[C@H](O)CC[C@]4(C)[C@H]3CC[C@]12C` (stereo partly drawn) [1j, 2-((R)-N-Benzyl-4-((3R,5S,7S,8R,9S,10S,13R,14S,17R)-3,7-dihydroxy-10,13-dimethylhexadecahydro-1H-cyclopenta[a]phenanthren-17-yl)pentanamido)-N-cyclohexyl-4,8-dimethylnon-7-enamide], the IC50 rises from 4.5 ± 0.3 µM to 9.2 ± 0.8 µM (2-fold). The first is the more potent here.

Compared with `O=C(NC1CCCCC1)C(c1ccccc1)N(C(=O)CCl)c1ccc2ccc3cccc4ccc1c2c34` (stereo not shown) [1g, 2-Chloro-N-(2-(cyclohexylamino)-2-oxo-1-phenylethyl)-N-(pyren-1-yl)acetamide], `O=C(NC1CCCCC1)C(c1ccccc1)N(Cc1ccccc1)C(=O)CCl` (stereo not shown) [1b, N-Benzyl-2-chloro-N-(2-(cyclohexylamino)-2-oxo-1-phenylethyl)acetamide] is lower in inhibition at 10 µM: 83.7 ± 1.8% for the first, 9.2 ± 2% for the second.

First: Cc1ccc(S(=O)(=O)CNC(=O)C(c2ccccc2)N(Cc2ccccc2)C(=O)CCl)cc1 (stereo not shown) [1a, N-Benzyl-2-chloro-N-(2-oxo-1-phenyl-2-((tosylmethyl)amino)ethyl)acetamide]
Second: Cc1ccc(S(=O)(=O)CNC(=O)C2(N(Cc3ccccc3)C(=O)CCl)CCCC2)cc1 [1f, 1-(N-Benzyl-2-chloroacetamido)-N-(tosylmethyl)cyclopentane-1-carboxamide]
The inhibition at 10 µM of the first is lower: 4.7 ± 1.1% for the first, 7.1 ± 1% for the second.

Compared with `CC(C)C(C(=O)NC1CCCCC1)N(Cc1ccccc1)C(=O)CCl` (stereo not shown) [1c, 2-(N-Benzyl-2-chloroacetamido)-N-cyclohexyl-3-methylbutanamide], `CC1=C(C(C(=O)NC2CCCCC2)N(Cc2ccccc2)C(=O)CCl)C(C)(C)CCC1` (stereo not shown) [1d, N-Benzyl-2-chloro-N-(2-(cyclohexylamino)-2-oxo-1-(2,6,6-trimethylcyclohex-1-en-1-yl)ethyl)acetamide] is higher in inhibition at 10 µM: 4.4 ± 2% for the first, 8.9 ± 2.1% for the second.

Compared with `O=C(CCl)N(Cc1ccccc1)C1(C(=O)NC2CCCCC2)CCCC1` [1e, 1-(N-Benzyl-2-chloroacetamido)-N-cyclohexylcyclopentane-1-carboxamide], `O=C(NC1CCCCC1)C(c1ccccc1)N(Cc1ccccc1)C(=O)C1CCCCC1` (stereo not shown) [1i, N-Benzyl-N-(2-(cyclohexylamino)-2-oxo-1-phenylethyl)cyclohexanecarboxamide] is higher in inhibition at 10 µM: 0.2 ± 0.8% for the first, 3.8 ± 0.4% for the second.

First: CC(=O)N(Cc1ccccc1)C(C(=O)NC1CCCCC1)c1ccccc1 (stereo not shown) [1h, 2-(N-Benzylacetamido)-N-cyclohexyl-2-phenylacetamide]
Second: CC(C)=CCCC(C)CC(C(=O)NC1CCCCC1)N(Cc1ccccc1)C(=O)CC[C@@H](C)[C@H]1CC[C@H]2[C@@H]3[C@@H](O)C[C@@H]4C[C@H](O)CC[C@]4(C)[C@H]3CC[C@]12C (stereo partly drawn) [1j, 2-((R)-N-Benzyl-4-((3R,5S,7S,8R,9S,10S,13R,14S,17R)-3,7-dihydroxy-10,13-dimethylhexadecahydro-1H-cyclopenta[a]phenanthren-17-yl)pentanamido)-N-cyclohexyl-4,8-dimethylnon-7-enamide]
The inhibition at 10 µM of the first is lower: 2.4 ± 1.6% for the first, 62.3 ± 0.2% for the second.

same assay, conditions: read-out: % Inhibition (10 μM)

Going from `NCc1ccccc1` [Benzylamine] to `[C-]#[N+]CS(=O)(=O)c1ccc(C)cc1` [TosMIC], the inhibition at 10 µM falls from 7 ± 1.4% to 0.5 ± 0.5%.

Compared with `CCCCCC[C@@H](O)C/C=C\CCCCCCCC(=O)O` [(R)-Ricinoleic acid], `CC(=O)CC[C@@H]1[C@H]2CC(=C(C)C)C(=O)C[C@@]12C` [Curcumenone (6)] is higher in inhibition at 10 µM: 3 ± 0.9% for the first, 7.8 ± 1.2% for the second.

Work on `Nc1ccc2ccc3cccc4ccc1c2c34` [1-Aminopyrene] yielded an inhibition at 10 µM of 5.6 ± 1%.
